In ChEMBL document CHEMBL5335810, “1,3-Disubstituted-1,2,4-triazin-6-ones with potent activity against androgen receptor-dependent prostate cancer cells” (Bioorg Med Chem, 2024):
One block for each molecule: values may come before it. The source made the active and inactive calls. The calls are words filed in the database; no cut-off is given here.

What was measured:
[1] = test system: CWR22R; assay: Inhibition of cell viability in ARV7-positive human 22Rv1 cells by Steady-Glo luciferase assay; format: functional, cell-based
[2] = test system: PC-3; assay: Inhibition of cell viability in AR-independent human PC-3 cells by Steady-Glo luciferase assay; format: functional, cell-based
[3] = Metabolic stability in mouse liver microsomes assessed as half life; format: ADME, Microsome
[4] = Distribution coefficient, logD of compound by chromatography; format: physicochemical; conditions: octanol/water
[5] = Metabolic stability in mouse liver microsomes assessed as intrinsic clearance measured per mg protein; format: ADME, Microsome; conditions: read-out: CLH
[6] = Drug uptake in C57BL6 mouse plasma at 25 mg/kg, po via gavage measured for 4 hrs by LC-MS/MS analysis; format: ADME, organism-based; conditions: in vivo
[7] = test system: CWR22R; assay: Antitumor activity against human 22Rv1 cells xenografted in SCID C.B17 mouse assessed as tumor growth inhibition by measuring tumor volume at 50 mg/kg/day, IG measured for 21 days by caliper method; format: functional, organism-based; conditions: time 21.0 day
[8] = Oral bioavailability in Sprague-Dawley rat at 25 mg/kg measured for 24 hrs by LC-MS/MS analysis; format: ADME, organism-based; conditions: in vivo
[9] = Cmax in Sprague-Dawley rat at 25 mg/kg, IG measured for 24 hrs by LC-MS/MS analysis; format: ADME, organism-based; parameters: dose 25 mg/kg, time 24 hrs, route ig; conditions: in vivo, po
[10] = test system: CWR22R; assay: Antitumor activity against human 22Rv1 cells xenografted in SCID C.B17 mouse assessed as tumor growth inhibition by measuring tumor weight at 50 mg/kg/day, IG measured for 21 days by caliper method; format: functional, organism-based; conditions: time 21.0 day
[11] = C0 in Sprague-Dawley rat at 1.8 mg/kg, iv measured for 24 hrs by LC-MS/MS analysis; format: ADME, organism-based; conditions: in vivo
[12] = Inhibition of cell viability in human adipose stromal cells by CCK8 assay; format: toxicity, cell-based
[13] = AUC (0 to t) in Sprague-Dawley rat at 25 mg/kg, IG measured for 24 hrs by LC-MS/MS analysis; format: ADME, organism-based; parameters: dose 25 mg/kg, time 24 hrs, route ig; conditions: in vivo, po
[14] = MRT (0 to infinity) in Sprague-Dawley rat at 25 mg/kg, IG measured for 24 hrs by LC-MS/MS analysis; format: ADME, organism-based; conditions: in vivo, po
[15] = Tmax in Sprague-Dawley rat at 25 mg/kg, IG measured for 24 hrs by LC-MS/MS analysis; format: ADME, organism-based; conditions: in vivo, po
[16] = Half life in Sprague-Dawley rat at 25 mg/kg, IG measured for 24 hrs by LC-MS/MS analysis; format: ADME, organism-based; conditions: in vivo, po
[17] = Clearance in Sprague-Dawley rat at 1.8 mg/kg, iv measured for 24 hrs by LC-MS/MS analysis; format: ADME, organism-based; conditions: in vivo
[18] = target: T1, Androgen receptor (Homo sapiens) (UniProt P10275); assay: Inhibition of androgen receptor transfected in human HEK293T cells incubated for 24 to 72 hrs by Western blot analysis; format: cell-based; conditions: dose 0.5-1 µM, time 24-72 hrs
T1 sequence (whole entry): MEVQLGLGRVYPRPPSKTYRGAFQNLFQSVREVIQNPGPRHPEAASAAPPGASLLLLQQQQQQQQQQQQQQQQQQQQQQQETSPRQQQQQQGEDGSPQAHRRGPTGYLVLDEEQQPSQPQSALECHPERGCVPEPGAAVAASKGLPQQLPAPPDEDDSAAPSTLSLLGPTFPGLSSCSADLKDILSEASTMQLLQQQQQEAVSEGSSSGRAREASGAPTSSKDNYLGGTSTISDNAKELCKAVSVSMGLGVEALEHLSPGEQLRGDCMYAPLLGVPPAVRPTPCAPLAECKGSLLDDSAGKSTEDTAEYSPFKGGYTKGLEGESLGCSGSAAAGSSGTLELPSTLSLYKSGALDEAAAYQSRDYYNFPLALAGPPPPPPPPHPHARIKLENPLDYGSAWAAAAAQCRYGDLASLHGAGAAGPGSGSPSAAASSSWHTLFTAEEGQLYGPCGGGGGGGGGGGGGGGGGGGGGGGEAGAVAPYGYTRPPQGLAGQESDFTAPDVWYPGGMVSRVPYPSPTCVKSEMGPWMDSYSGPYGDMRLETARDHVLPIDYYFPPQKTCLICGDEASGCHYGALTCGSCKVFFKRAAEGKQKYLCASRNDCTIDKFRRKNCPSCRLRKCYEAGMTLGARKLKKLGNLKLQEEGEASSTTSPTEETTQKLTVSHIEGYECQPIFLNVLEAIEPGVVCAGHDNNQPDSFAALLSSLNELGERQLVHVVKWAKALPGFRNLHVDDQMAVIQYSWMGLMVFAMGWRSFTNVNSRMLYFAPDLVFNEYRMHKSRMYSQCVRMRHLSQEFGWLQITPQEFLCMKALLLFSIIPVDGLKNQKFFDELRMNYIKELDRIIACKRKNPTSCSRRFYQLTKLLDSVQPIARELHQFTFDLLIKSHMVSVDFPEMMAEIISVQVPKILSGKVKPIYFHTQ

[19] = test system: LNCaP C4-2B; assay: Inhibition of cell viability in AR-dependent human LNCaP C4-2B cells by Steady-Glo luciferase assay; format: functional, cell-based
[20] = Elimination rate constant in Sprague-Dawley rat at 1.8 mg/kg, iv measured for 24 hrs by LC-MS/MS analysis; format: ADME, organism-based; conditions: in vivo
[21] = AUC (0 to infinity) in Sprague-Dawley rat at 25 mg/kg, IG measured for 24 hrs by LC-MS/MS analysis; format: ADME, organism-based; parameters: time 24 hrs, dose 25 mg/kg, route ig; conditions: in vivo, po
[22] = target: T1, Androgen receptor (Homo sapiens); assay: Inhibition of androgen receptor in human 22Rv1 cells assessed as decrease in HGF mRNA level at 1 uM incubated for 36 hrs by RNA sequencing analysis; format: cell-based
[23] = MRT (0 to infinity) in Sprague-Dawley rat at 1.8 mg/kg, iv measured for 24 hrs by LC-MS/MS analysis; format: ADME, organism-based; conditions: in vivo
[24] = Toxicity in SCID C.B17 mouse xenografted with human 22Rv1 cells assessed as body weight loss at 50 mg/kg/day, IG measured for 21 days; format: organism-based, CWR22R; conditions: in vivo, po, 504 h, time 21 day
[25] = test system: LNCaP; assay: Inhibition of cell viability in AR-dependent human LNCaP cells by Steady-Glo luciferase assay; format: functional, cell-based
[26] = test system: DU-145; assay: Inhibition of cell viability in AR-independent human DU-145 cells by Steady-Glo luciferase assay; format: functional, cell-based
[27] = target: T1, Androgen receptor (Homo sapiens); assay: Inhibition of androgen receptor transfected in human HEK293T cells at 0.5 to 1 uM by Western blot analysis; format: cell-based; conditions: dose 0.5-1 µM, time 24-72 hrs, TDE = time-dependent effect
[28] = AUC (0 to t) in Sprague-Dawley rat at 1.8 mg/kg, iv measured for 24 hrs by LC-MS/MS analysis; format: ADME, organism-based; parameters: time 24 hrs, dose 1.8 mg/kg, route iv; conditions: in vivo
[29] = MRT (0 to t) in Sprague-Dawley rat at 25 mg/kg, IG measured for 24 hrs by LC-MS/MS analysis; format: ADME, organism-based; conditions: in vivo, po
[30] = Elimination rate constant in Sprague-Dawley rat at 25 mg/kg, IG measured for 24 hrs by LC-MS/MS analysis; format: ADME, organism-based; conditions: in vivo, po
[31] = Volume of distribution at steady state in Sprague-Dawley rat at 1.8 mg/kg, iv measured for 24 hrs by LC-MS/MS analysis; format: ADME, organism-based; conditions: in vivo, read-out: Vdss
[32] = MRT (0 to t) in Sprague-Dawley rat at 1.8 mg/kg, iv measured for 24 hrs by LC-MS/MS analysis; format: ADME, organism-based; conditions: in vivo
[33] = test system: HEK-293T; assay: Downregulation of AR-v1 expression transfected in human HEK293T cells at 0.5 to 1 uM incubated for 24 to 72 hrs by Western blot analysis; format: functional, cell-based; conditions: dose 0.5-1 µM, time 24-72 hrs
[34] = AUC (0 to infinity) in Sprague-Dawley rat at 1.8 mg/kg, iv measured for 24 hrs by LC-MS/MS analysis; format: ADME, organism-based; parameters: dose 1.8 mg/kg, time 24 hrs, route iv; conditions: in vivo
[35] = Half life in Sprague-Dawley rat at 1.8 mg/kg, iv measured for 24 hrs by LC-MS/MS analysis; format: ADME, organism-based; conditions: in vivo

IC50 [2]: 2940 nM
Compound: O=c1cnc(Cc2ccccc2)nn1CC1CCCCC1
IC50 [1]: 3230 nM

half-life [3]: 0.167 h
chromatographic logD [4]: 4.3
microsomal CLint [5]: 181 µL/min/mg
IC50 [2]: 2550 nM
Compound: O=c1cnc(-c2ccccc2)nn1Cc1ccccc1Cl
IC50 [1]: 270 nM

Drug uptake [6]: Not Active
IC50 [2]: 5280 nM
Compound: O=c1cnc(-c2ccccc2)nn1Cc1cccc(C(F)(F)F)c1
IC50 [1]: 220 nM

IC50 [2]: 11800 nM
Compound: O=c1cnc(-c2cccc(Br)c2)nn1Cc1cccc(Cl)c1
IC50 [1]: 3250 nM

IC50 [2]: 9790 nM
Compound: O=c1cnc(Cc2ccccc2)nn1Cc1ccccc1
IC50 [1]: 740 nM

Drug uptake [6]: Not Active
IC50 [2]: 2520 nM
Compound: O=c1cnc(Cc2ccccc2)nn1Cc1cccc(C(F)(F)F)c1
IC50 [1]: 130 nM

half-life [3]: 0.1 h
chromatographic logD [4]: 3.8
microsomal CLint [5]: 296 µL/min/mg
IC50 [2]: 10100 nM
Compound: O=c1cnc(-c2ccccc2)nn1C1CCCC1
IC50 [1]: 490 nM

Drug uptake [6]: Not Active
IC50 [2]: 4370 nM
Compound: Cc1nc(Cn2nc(-c3ccccc3)ncc2=O)cs1
IC50 [1]: 690 nM

IC50 [2]: 10800 nM
Compound: CC(C)CCn1nc(-c2ccccc2)ncc1=O
IC50 [1]: 640 nM

IC50 [2]: > 10000 nM
Compound: COc1cccc(-c2ncc(=O)n(Cc3ccc(Cl)c(Cl)c3)n2)c1
IC50 [1]: 3310 nM

IC50 [2]: 32500 nM
Compound: CC(C)n1nc(-c2ccccc2)ncc1=O
IC50 [1]: 920 nM

Drug uptake [6]: Not Active
IC50 [2]: 3230 nM
Compound: O=c1cnc(-c2ccccc2)nn1Cc1ccc(Cl)nc1
IC50 [1]: 90 nM

Drug uptake [6]: Not Active
IC50 [2]: 2140 nM
Compound: O=c1cnc(Cc2ccccc2)nn1Cc1ccc(Cl)c(Cl)c1
IC50 [1]: 200 nM

IC50 [2]: > 10000 nM
Compound: O=c1cnc(-c2ccccc2)nn1-c1ccccc1
IC50 [1]: 2190 nM

Drug uptake [6]: Not Active
IC50 [2]: 10900 nM
Compound: O=c1cnc(-c2ccccc2)nn1Cc1ccc(Cl)cc1
IC50 [1]: 600 nM

IC50 [2]: 3340 nM
Compound: O=c1cnc(-c2ccccc2)nn1-c1ccc(Cl)cc1
IC50 [1]: 1400 nM

IC50 [2]: 42900 nM
Compound: N#CCCCn1nc(-c2ccccc2)ncc1=O
IC50 [1]: 3030 nM

IC50 [2]: > 10000 nM
Compound: COc1ccc(Cn2nc(-c3cccc(OC)c3)ncc2=O)cc1
IC50 [1]: 3120 nM

IC50 [2]: 11400 nM
Compound: O=c1cnc(-c2cccc(Cl)c2)nn1Cc1cccc(Cl)c1
IC50 [1]: 2660 nM

IC50 [2]: 430 nM
Compound: COc1cccc(-c2ncc(=O)n(Cc3ccc(Cl)cc3Cl)n2)c1
IC50 [1]: 150 nM

bioavailability [8]: 12.6%
Cmax [9]: 1910 ng/mL
C0 at 24 h [11]: 12600 ng/mL
AUC(0-t) at 24 h [13]: 26500 ng·h/mL
MRT inf [14]: 9.27 h
Tmax [15]: 4 h
half-life [16]: 4.59 h
clearance [17]: 2.02 mL/min/kg
inhibition [18]: Dose-Dependent Effect
IC50 [19]: 320 nM
k el at 24 h [20]: 2.5e-05 s⁻¹
AUC(0-inf) [21]: 27500 ng·h/mL
inhibition [22]: Active
MRT inf [23]: 7.65 h
IC50 [25]: 170 nM
Drug uptake [6]: Active
IC50 [26]: 1850 nM
inhibition [27]: Tde
AUC(0-t) at 24 h [28]: 14300 ng·h/mL
IC50 [2]: 1480 nM
MRT last at 24 h [29]: 8.4 h
k el at 24 h [30]: 4.17e-05 s⁻¹
Vd [31]: 0.87 L/kg
MRT last at 24 h [32]: 5.05 h
AUC(0-inf) [34]: 15700 ng·h/mL
half-life [35]: 8.02 h
Compound: O=c1cnc(Cc2ccccc2)nn1Cc1ccc(Cl)cc1Cl
TGI [7]: Active
TGI [10]: Active
IC50 [12]: 3330 nM
IC50 [1]: 180 nM
Activity [24]: Non-Toxic
Activity [33]: inactive

IC50 [2]: 600 nM
Compound: O=c1cnc(Cc2ccccc2)nn1CC1CC1
IC50 [1]: 390 nM
